US12576114B2, “Methods of functional vascularization of pancreatic islets and beta-cell organoids” (CORNELL UNIVERSITY, priority 2019, dated 2026)
Residues, ends and D or L forms follow the SMILES beside them. *: point of attachment. Cbz = O=C(OCc1ccccc1)*

Key:
Rap1 = Rap1 inhibition experiment, R-VEC tube formation; assay type: cell-based, human; conditions: R-VECs, 10 μM, 4 weeks
Experimental: Tube formation assays for endothelial cells with or without ETV2 were set up in 24 wells as described above. The next day, Rap1 inhibitor (GGTI-298, Tocris) resuspended in DMSO was added to the wells at a 1:1000 dilution at the final concentration of 10 μM, while the same amount of DMSO was added to the control wells. The inhibitor and media were changed every other day for 4 weeks. Images were obtained and calculated as described above at 1 week and 4 week time points.

ETV2 protein levels = experiment: Proteasome inhibition experiment in R-VEC tubes; assay type: cell-based, human; conditions: R-VEC tubes at stabilization stage (4 weeks), 20 μM for 6 hrs vs DMSO, Western blot
Experimental: Cells were lysed into 1×SDS loading buffer (50 mM Tris-HCl pH 6.8, 5% beta-mercaptoethanol, 2% SDS, 0.01% bromophenol blue, 10% glycerol) followed by sonication (Bioruptor, 2×30 seconds at high setting). Proteins were solved on 5-15% gradient Tris-glycine SDS-PAGE and semi-dry transferred to nitrocellulose membranes. The following primary antibodies were used at indicated dilutions: Rap1 (CST, #2399, 1:1,000); RASGRP3 (CST, #3334, 1:1,000), GAPDH (CST, #5174, 1:10,000); AKT (CST, 34685, 1:5,000); p-S473-Akt (CST, #4060, 1:2,000); ETS1 (CST, #14069, 1,000); and ETV2 (Abcam, ab181847, 1:1,000). HRP-conjugated secondary antibodies and the ECL Prime Western Blotting System (GE Healthcare, RPN2232) were then used. Chemiluminescent signals were captured with a digital camera (Kindle Biosciences) and images of protein bands taken for quantification using ImageJ.
R-VEC vessels were prepared on Matrigel as described above. At stabilization stage (4 weeks), R-VEC tubes were treated with either 20 μM of MG132 (Selleck Chemicals) or DMSO for 6 hrs. The media was removed and the wells were washed once with PBS. R-VEC tubes were then incubated in a solution of 2 mg/ml Dispase (Sigma) for 45 mins at 37° C. to dissociate the tubes. 20 μM of MG132 (Selleck Chemicals) or DMSO was continuously provided during the dissociation period. […]

Row | Compound | lumen (Rap1; confocal and electron microscopy) | vessel formation (Rap1; vs DMSO) | ETV2 protein levels restored (ETV2 protein levels)
1 | COC(=O)[C@H](CC(C)C)NC(=O)c1ccc(NC[C@@H](N)CS)cc1-c1cccc2ccccc12 [GGTI298] | no lumen was present | significantly reduced | 
2 | CC(C)C[C@@H](C=O)NC(=O)[C@H](CC(C)C)NC(=O)[C@H](CC(C)C)NC(=O)OCc1ccccc1 [MG132] (Cbz-Leu-Leu-Leu-aldehyde) |  |  | six-fold
